What was measured:
Type in all cases: cell-based
mouse Oct2 = target: T1, mouse Oct2 (Mus musculus, UniProt O70577); experiment: TEA and ASP+ uptake inhibition in mOct2-transfected HEK293 cells
T1 sequence (O70577 1-553): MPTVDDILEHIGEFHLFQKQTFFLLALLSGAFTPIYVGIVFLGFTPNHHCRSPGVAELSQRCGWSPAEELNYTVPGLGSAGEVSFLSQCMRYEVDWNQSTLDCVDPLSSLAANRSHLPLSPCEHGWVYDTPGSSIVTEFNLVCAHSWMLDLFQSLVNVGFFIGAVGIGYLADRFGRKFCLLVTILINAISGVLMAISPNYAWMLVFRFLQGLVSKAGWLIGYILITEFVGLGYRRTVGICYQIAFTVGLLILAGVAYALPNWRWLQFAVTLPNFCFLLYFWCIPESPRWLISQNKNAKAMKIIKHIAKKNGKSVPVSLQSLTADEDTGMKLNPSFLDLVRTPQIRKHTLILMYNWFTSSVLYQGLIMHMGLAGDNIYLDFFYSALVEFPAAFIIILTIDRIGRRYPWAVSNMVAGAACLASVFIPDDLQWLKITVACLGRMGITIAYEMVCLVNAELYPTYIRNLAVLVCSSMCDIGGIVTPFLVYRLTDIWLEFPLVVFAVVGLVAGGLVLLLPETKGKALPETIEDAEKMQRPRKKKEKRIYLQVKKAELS

OCT2 [1] = target: T2, OCT2 (Homo sapiens, UniProt O15244); experiment: […]TEA uptake inhibition in OCT2-transfected HEK293 cells, Dixon plot
T2 sequence (O15244 1-555): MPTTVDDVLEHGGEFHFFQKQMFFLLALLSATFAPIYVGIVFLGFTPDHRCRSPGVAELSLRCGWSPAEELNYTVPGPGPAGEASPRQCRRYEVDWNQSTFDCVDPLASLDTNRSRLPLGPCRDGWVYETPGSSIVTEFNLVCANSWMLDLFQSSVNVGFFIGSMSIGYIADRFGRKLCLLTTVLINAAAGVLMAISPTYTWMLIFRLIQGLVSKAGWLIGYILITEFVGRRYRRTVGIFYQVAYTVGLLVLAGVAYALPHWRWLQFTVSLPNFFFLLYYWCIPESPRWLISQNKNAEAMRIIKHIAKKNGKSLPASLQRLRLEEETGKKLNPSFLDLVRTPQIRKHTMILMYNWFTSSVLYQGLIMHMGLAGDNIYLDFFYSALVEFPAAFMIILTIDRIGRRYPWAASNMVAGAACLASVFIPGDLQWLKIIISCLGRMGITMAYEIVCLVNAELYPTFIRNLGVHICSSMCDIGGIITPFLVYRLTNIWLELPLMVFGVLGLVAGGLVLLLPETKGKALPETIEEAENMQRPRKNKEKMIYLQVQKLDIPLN

mouse Oct1 = target: T3, mouse Oct1 (Mus musculus, UniProt O08966); experiment: TEA and ASP+ uptake inhibition in mOct1-transfected HEK293 cells
T3 sequence (O08966 1-556): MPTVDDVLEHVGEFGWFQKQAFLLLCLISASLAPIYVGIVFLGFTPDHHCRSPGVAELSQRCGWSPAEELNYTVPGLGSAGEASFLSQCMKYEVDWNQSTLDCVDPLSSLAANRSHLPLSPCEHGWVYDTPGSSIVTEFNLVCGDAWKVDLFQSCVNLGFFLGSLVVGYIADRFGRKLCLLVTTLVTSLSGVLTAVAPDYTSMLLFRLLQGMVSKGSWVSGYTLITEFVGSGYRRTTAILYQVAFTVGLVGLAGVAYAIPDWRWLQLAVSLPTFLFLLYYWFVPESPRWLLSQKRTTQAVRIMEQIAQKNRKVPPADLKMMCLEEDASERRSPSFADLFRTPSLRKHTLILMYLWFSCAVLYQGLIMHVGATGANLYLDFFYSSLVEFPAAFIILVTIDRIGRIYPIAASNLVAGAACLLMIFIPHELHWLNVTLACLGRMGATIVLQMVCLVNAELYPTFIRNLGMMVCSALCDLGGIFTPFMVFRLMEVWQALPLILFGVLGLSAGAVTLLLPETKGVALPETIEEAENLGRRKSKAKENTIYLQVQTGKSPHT

OCT2 [2] = target: T2, OCT2; experiment: […]TEA uptake in OCT2-transfected HEK293 cells

Ki (OCT2 [1]) [µM] | Compound | TEA and ASP+ uptake inhibition in mOct2-transfected HEK293 cells (mouse Oct2) | TEA and ASP+ uptake inhibition in mOct1-transfected HEK293 cells (mouse Oct1) | [14C]TEA uptake in OCT2-transfected HEK293 cells (OCT2 [2])
3.04 | Cc1ccc(C(=O)Cn2c3c(sc2=N)CCCC3)cc1 [pifithrin-α] | pifithrin-α reduced uptake of TEA in Oct1 and Oct2 overexpressing HEK293 cells (Fig. 5A) | pifithrin-α reduced uptake of TEA in Oct1 and Oct2 overexpressing HEK293 cells (Fig. 5A) | –
– | CC[N+](CC)(CC)CC [tetraethylammonium] | – | – | kinetic analyses were performed with and without pifithrin-α using varying concentrations of TEA as the OCT2 substrate

From article PMC4119572 (Clinical cancer research : an official journal of the …, 2014)
